# Reference: patent US12240844B2 (Voronoi, Inc., priority 2019, dated 2025)
# Legend:
# Type in all cases: biochemical
# [1] = target: T1, human GST-DYRK1A (full length) (Homo sapiens, UniProt Q13627); test: GST-DYRK1A enzyme inhibition, ADP-Glo kinase assay; details: read-out: DYRK1 IC50
# T1 construct: purified human GST-DYRK1A (full length, Thermo scientifics) enzyme; GST; purchased Thermo scientifics
# Experimental: (§1) In order to evaluate the inhibitory activity of the compounds according to the present invention on LRRK2, LRRK2 (G2019S), DYRK1, CLK1 and TTK kinases, the following experiment was performed.
# (§2) Example compounds were reacted with the purified human GST-DYRK1A (full length, Thermo scientifics) enzyme to evaluate the enzyme inhibitory ability as follows. As the reaction buffer, the composition of 40 mM Tris-HCl pH 7.4, 20 mM MgCl2, 0.5 mg/mL BSA, and 50 uM DTT was used, and the reaction of all test materials was performed on the reaction buffer. During the test, the human GST-DYRK1A (full length, 10 ng) enzyme, the purified ATP (10 uM), and a specific substrate solution were reacted at 25° C. for 1 hour, and then the enzyme activity was identified using the in vitro ADP-Glo™ kinase assay (promega). Luminescence was measured by reacting the enzyme activity reaction solution, an ADP-Glo reaction solution and the enzyme potency detection solution in a ratio of 2:2:1. The degree of inhibition of enzyme activity according to the treatment concentrations of the respective compounds was calculated based on the fluorescence of the enzyme activity of a solvent control group that was not treated with the compound, where the concentration of each compound to inhibit enzyme activity inhibition by 50% was determined as an IC50 (nM) value. The IC50 of each compound was determined in triplicate data sets and obtained using Prism (version 7.01, GraphPad) software.
# (§3) In the table below, the following designations were used for the evaluation of enzyme inhibitory ability.
# human GST-CLK1 (129-end) = target: T2, human GST-CLK1 (129-end) (Homo sapiens, UniProt P49759); test: GST-CLK1 enzyme inhibition, ADP-Glo kinase assay; details: ATP 10 uM
# T2 construct: purified human GST-CLK1 (129-end, Signalchem) enzyme; GST; purchased Signalchem
# T2 sequence (P49759 129-484 limits assumed): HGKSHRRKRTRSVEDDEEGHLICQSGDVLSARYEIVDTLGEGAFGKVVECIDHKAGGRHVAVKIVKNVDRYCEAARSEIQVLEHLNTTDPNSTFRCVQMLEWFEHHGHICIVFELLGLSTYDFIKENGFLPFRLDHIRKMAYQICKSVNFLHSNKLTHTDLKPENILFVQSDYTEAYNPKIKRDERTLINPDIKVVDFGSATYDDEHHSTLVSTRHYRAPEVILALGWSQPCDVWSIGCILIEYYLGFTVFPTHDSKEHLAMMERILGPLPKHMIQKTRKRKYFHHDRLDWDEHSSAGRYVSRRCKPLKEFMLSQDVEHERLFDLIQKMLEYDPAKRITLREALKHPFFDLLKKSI
# Experimental: as §1
# as §2, with “GST-CLK1 (129-end, Signalchem)” for “GST-DYRK1A (full length, Thermo scientifics)”, “GST-CLK1 (129-end, 3” for “GST-DYRK1A (full length, 10”
# as §3
# LRRK2 (G2019S) = LRRK2 (G2019S) (Homo sapiens, UniProt Q5S007, G2019S); test: LRRK2 G2019S enzyme inhibition, ADP-Glo kinase assay; parameters: purchased SignalChem L10-12GG
# Chain of LRRK2 (G2019S) (Q5S007 970-2527 G2019S limits assumed): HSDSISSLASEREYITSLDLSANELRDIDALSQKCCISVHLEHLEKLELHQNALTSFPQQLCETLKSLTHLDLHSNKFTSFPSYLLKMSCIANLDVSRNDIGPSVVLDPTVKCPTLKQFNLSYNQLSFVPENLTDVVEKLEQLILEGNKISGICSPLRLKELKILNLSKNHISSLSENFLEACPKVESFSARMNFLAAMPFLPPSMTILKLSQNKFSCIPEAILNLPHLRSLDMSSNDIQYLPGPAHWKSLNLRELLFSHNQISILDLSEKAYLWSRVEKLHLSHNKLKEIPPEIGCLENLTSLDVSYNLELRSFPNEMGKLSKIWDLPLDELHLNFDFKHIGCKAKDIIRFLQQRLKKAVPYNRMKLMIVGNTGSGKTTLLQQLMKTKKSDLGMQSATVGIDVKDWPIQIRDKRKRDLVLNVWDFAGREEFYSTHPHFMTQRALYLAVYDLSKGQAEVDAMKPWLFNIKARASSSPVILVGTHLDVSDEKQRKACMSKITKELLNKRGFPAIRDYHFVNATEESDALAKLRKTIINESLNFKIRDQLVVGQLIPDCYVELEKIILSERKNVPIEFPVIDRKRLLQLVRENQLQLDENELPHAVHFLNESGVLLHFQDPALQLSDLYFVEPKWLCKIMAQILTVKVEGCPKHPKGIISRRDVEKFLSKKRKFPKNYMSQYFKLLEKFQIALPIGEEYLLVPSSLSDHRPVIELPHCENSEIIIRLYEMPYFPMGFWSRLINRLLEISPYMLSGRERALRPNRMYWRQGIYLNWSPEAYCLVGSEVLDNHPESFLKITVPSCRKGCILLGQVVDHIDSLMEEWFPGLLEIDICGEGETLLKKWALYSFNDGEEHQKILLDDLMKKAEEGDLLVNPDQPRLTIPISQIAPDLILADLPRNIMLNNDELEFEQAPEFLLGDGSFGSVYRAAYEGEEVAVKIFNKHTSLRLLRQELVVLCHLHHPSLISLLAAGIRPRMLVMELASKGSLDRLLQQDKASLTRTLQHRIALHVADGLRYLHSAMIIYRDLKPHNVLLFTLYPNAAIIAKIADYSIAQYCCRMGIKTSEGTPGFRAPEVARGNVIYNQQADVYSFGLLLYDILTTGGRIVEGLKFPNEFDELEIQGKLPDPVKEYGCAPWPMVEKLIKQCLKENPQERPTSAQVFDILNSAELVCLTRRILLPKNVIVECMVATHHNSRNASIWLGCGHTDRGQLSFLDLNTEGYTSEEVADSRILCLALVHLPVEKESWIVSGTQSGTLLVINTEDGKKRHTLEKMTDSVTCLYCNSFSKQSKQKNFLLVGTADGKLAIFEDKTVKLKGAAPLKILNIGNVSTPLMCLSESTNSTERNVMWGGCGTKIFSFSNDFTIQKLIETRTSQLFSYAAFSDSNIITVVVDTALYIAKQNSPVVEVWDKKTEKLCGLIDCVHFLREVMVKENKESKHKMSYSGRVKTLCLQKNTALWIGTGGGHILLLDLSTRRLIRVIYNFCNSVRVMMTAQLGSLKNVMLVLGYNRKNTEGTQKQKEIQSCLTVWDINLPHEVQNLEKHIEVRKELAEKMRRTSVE
# Experimental: as §1
# Example compounds were reacted with the purified human LRRK2 G2019S (L10-12GG, SignalChem) enzyme to evaluate the enzyme inhibitory ability as follows. The reaction buffer was used as the composition of 40 mM Tris-HCl pH7.4, 20 mM MgCl2, 0.5 mg/ml BSA and 50 μM DTT, and the reaction of all test materials was performed on the reaction buffer. The compound was diluted with 10 mM DMSO stock in 12 steps by a serial dilution method, and the enzyme activity was measured at the final compound concentrations of 50, 10, 2, 0.4, 0.08, 0.016, 0.0032, 0.00064, 0.000128, 0.0000256, 0.00000512 and 0.000001024 μM. In the test, the human LRRK2 G2019S (16 ng) enzyme was reacted with the purified ATP (25 μM) and an enzyme substrate (0.2 μg) at 25° C. for 2 hours, and then the enzyme activity was identified using the in vitro ADP-Glo™ kinase assay (promega). The enzyme activity reaction liquid, an ADP-Glo reaction liquid and an enzyme potency detection solution were reacted in a ratio of 2:2:1, and the degree of inhibition of enzyme activity was measured by Luminescence. The degree of inhibition of enzyme activity according to the treatment concentrations of the respective compounds was calculated based on the fluorescence of the enzyme activity of a solvent control group that was not treated with the compound, where the concentration of each compound to inhibit enzyme activity inhibition by 50% was determined as an IC50 (nM) value and obtained using Prism (Version 5.01, GraphPad) software.
# as §3
IC50 [1],IC50 (human GST-CLK1 (129-end)),IC50 (LRRK2 (G2019S)),Compound
301 to 1000 nM,301 to 1000 nM,301 to 1000 nM,"COc1cc(S(C)(=O)=O)ccc1Nc1cc(NC2CC2)c2cc[nH]c2n1 [Example 1, N^4-cyclopropyl-N^6-(2-methoxy-4-(methylsulfonyl)phenyl)-1H-pyrrolo[2,3-b]pyridine-4,6-diamine]"
301 to 1000 nM,301 to 1000 nM,< 100 nM,"CNc1cc(Nc2ccc(C(=O)N3CCOCC3)c3c2OCCO3)nc2[nH]ccc12 [Example 2, (8-((4-(Methylamino)-1H-pyrrolo[2,3-b]pyridine-6-yl)amino)-2,3-dihydrobenzo[b] [1,4]dioxin-5-yl)(morpholino) methanone]"
301 to 1000 nM,301 to 1000 nM,101 to 300 nM,"CCNc1cc(Nc2ccc(C(=O)N3CCOCC3)c3c2OCCO3)nc2[nH]ccc12 [Example 3, (8-((4-(ethylamino)-1H-pyrrolo[2,3-b]pyridin-6-yl)amino)-2,3-dihydrobenzo[b] [1,4]dioxin-5-yl)(morpholino) methanone 2,2,2-trifluoroacetate]"
301 to 1000 nM,301 to 1000 nM,< 100 nM,"CCCNc1cc(Nc2ccc(C(=O)N3CCOCC3)c3c2OCCO3)nc2[nH]ccc12 [Example 4, morpholino(8-((4-(propylamino)-1H-pyrrolo[2,3-b]pyridin-6-yl)amino)-2,3-dihydrobenzo [b] [1,4]dioxin-5-yl)(morpholino) methanone 2,2,2-trifluoroacetate]"
301 to 1000 nM,301 to 1000 nM,< 100 nM,"CC(C)Nc1cc(Nc2ccc(C(=O)N3CCOCC3)c3c2OCCO3)nc2[nH]ccc12 [Example 5, (8-((4-(isopropylamino)-1H-pyrrolo[2,3-b]pyridin-6-yl)amino)-2,3-dihydrobenzo[b] [1,4]dioxin-5-yl)(morpholino) methanone]"
301 to 1000 nM,301 to 1000 nM,< 100 nM,"CC(C)CNc1cc(Nc2ccc(C(=O)N3CCOCC3)c3c2OCCO3)nc2[nH]ccc12 [Example 6, (8-((4-(isobutylamino)-1H-pyrrolo[2,3-b]pyridin-6-yl)amino)-2,3-dihydrobenzo [b] [1,4]dioxin-5-yl)(morpholino) methanone]"
301 to 1000 nM,301 to 1000 nM,< 100 nM,"O=C(c1ccc(Nc2cc(NC3CC3)c3cc[nH]c3n2)c2c1OCCO2)N1CCOCC1 [Example 7, (8-((4-(cyclopropylamino)-1H-pyrrolo[2,3-b]pyridin-6-yl)amino)-2,3-dihydrobenzo [b] [1,4]dioxin-5-yl)(morpholino) methanone]"
301 to 1000 nM,301 to 1000 nM,101 to 300 nM,"O=C(c1ccc(Nc2cc(NC3CCCCC3)c3cc[nH]c3n2)c2c1OCCO2)N1CCOCC1 [Example 8, (8-((4-(cyclohexylamino)-1H-pyrrolo[2,3-b]pyridin-6-yl)amino)-2,3-dihydrobenzo[b] [1,4]dioxin-5-yl)(morpholino) methanone]"
301 to 1000 nM,301 to 1000 nM,< 100 nM,"CS(=O)(=O)CCNc1cc(Nc2ccc(C(=O)N3CCOCC3)c3c2OCCO3)nc2[nH]ccc12 [Example 9, (8-((4-((2-(methylsulfonyl)ethyl)amino)-1H-pyrrolo[2,3-b]pyridin-6-yl)amino)-2,3-dihydrobenzo[b] [1,4]dioxin-5-yl)(morpholino) methanone]"
301 to 1000 nM,301 to 1000 nM,101 to 300 nM,"CCNc1cc(Nc2ccc(S(=O)(=O)N3CCOCC3)cc2OC)nc2[nH]ccc12 [Example 11, N^4-ethyl-N^6-(2-methoxy-4-(morpholinosulfonyl)phenyl)-1H-pyrrolo[2,3-b]pyridine-4,6-diamine 2,2,2-trifluoroacetate]"
301 to 1000 nM,301 to 1000 nM,< 100 nM,"CCCNc1cc(Nc2ccc(S(=O)(=O)N3CCOCC3)cc2OC)nc2[nH]ccc12 [Example 12, N^6-(2-methoxy-4-(morpholinosulfonyl)phenyl)-N^4-propyl-1H-pyrrolo[2,3-b]pyridine-4,6-diamine 2,2,2-trifluoroacetate]"
301 to 1000 nM,301 to 1000 nM,301 to 1000 nM,"COc1cc(S(=O)(=O)N2CCOCC2)ccc1Nc1cc(NC(C)C)c2cc[nH]c2n1 [Example 13, N^4-isopropyl-N^6-(2-methoxy-4-(morpholinosulfonyl)phenyl)-1H-pyrrolo[2,3-b]pyridine-4,6-diamine]"
301 to 1000 nM,301 to 1000 nM,301 to 1000 nM,"COc1cc(S(=O)(=O)N2CCOCC2)ccc1Nc1cc(NCC(C)C)c2cc[nH]c2n1 [Example 14, N^4-isobutyl-N^6-(2-methoxy-4-(morpholinosulfonyl)phenyl)-1H-pyrrolo[2,3-b]pyridine-4,6-diamine]"
301 to 1000 nM,301 to 1000 nM,< 100 nM,"COc1cc(S(=O)(=O)N2CCOCC2)ccc1Nc1cc(NC2CC2)c2cc[nH]c2n1 [Example 15, N^4-cyclopropyl-N^6-(2-methoxy-4-(morpholinosulfonyl)phenyl)-1H-pyrrolo[2,3-b]pyridine-4,6-diamine]"
301 to 1000 nM,301 to 1000 nM,301 to 1000 nM,"COc1cc(S(=O)(=O)N2CCOCC2)ccc1Nc1cc(NC2CCCCC2)c2cc[nH]c2n1 [Example 16, N^4-cyclohexyl-N^6-(2-methoxy-4-(morpholinosulfonyl)phenyl)-1H-pyrrolo[2,3-b]pyridine-4,6-diamine]"
301 to 1000 nM,301 to 1000 nM,301 to 1000 nM,"COc1cc(S(=O)(=O)N2CCOCC2)ccc1Nc1cc(NCCS(C)(=O)=O)c2cc[nH]c2n1 [Example 17, N^6-(2-methoxy-4-(morpholinosulfonyl)phenyl)-N^4-(2-(methylsulfonyl)ethyl)-1H-pyrrolo[2,3-b]pyridine-4,6-diamine]"
301 to 1000 nM,301 to 1000 nM,< 100 nM,"CNc1cc(Nc2ccc(S(=O)(=O)N3CCC(N4CCOCC4)CC3)cc2OC)nc2[nH]ccc12 [Example 18, N^6-(2-methoxy-4-((4-morpholinopiperidin-1-yl)sulfonyl)phenyl)-N^4-methyl-1H-pyrrolo[2,3-b]pyridine-4,6-diamine]"
301 to 1000 nM,301 to 1000 nM,< 100 nM,"CCNc1cc(Nc2ccc(S(=O)(=O)N3CCC(N4CCOCC4)CC3)cc2OC)nc2[nH]ccc12 [Example 19, N^4-ethyl-N^6-(2-methoxy-4-((4-morpholinopiperidin-1-yl)sulfonyl)phenyl)-1H-pyrrolo[2,3-b]pyridine-4,6-diamine]"
301 to 1000 nM,301 to 1000 nM,< 100 nM,"CCCNc1cc(Nc2ccc(S(=O)(=O)N3CCC(N4CCOCC4)CC3)cc2OC)nc2[nH]ccc12 [Example 20, N^6-(2-methoxy-4-((4-morpholinopiperidin-1-yl)sulfonyl)phenyl)-N^4-propyl-1H-pyrrolo[2,3-b]pyridine-4,6-diamine]"
301 to 1000 nM,301 to 1000 nM,< 100 nM,"COc1cc(S(=O)(=O)N2CCC(N3CCOCC3)CC2)ccc1Nc1cc(NCC(C)C)c2cc[nH]c2n1 [Example 21, N^4-isobutyl-N^6-(2-methoxy-4-((4-morpholinopiperidin-1-yl)sulfonyl)phenyl)-1H-pyrrolo[2,3-b]pyridine-4,6-diamine]"
